Results published in patent publication US20240417359A1, “PRECURSORS OF PHENOLIC FRAGRANT COMPOUNDS” (GIVAUDAN SA, priority 2021, published 2024).
Entries after “also recorded” stand apart in the source; their conditions may differ.

How the values were obtained:
[1] = Washtest with liquid detergent and sensory evaluation of fabric by expert panel; conditions: for odour released on dry fabric: comparison of double bond position Δ-2, Δ-3, Δ-4
Experimental: The wet and line-dried fabric (1 and 4 days) was assessed by a panel of 4-6 experts with regard to odour intensity and quality. The odour intensity was recorded on an intensity scale of 0 (odourless) to 5 (extremely strong).
The odour intensity was recorded on an intensity scale of 0 (odorless) to 5 (extremely strong).
Heavy duty liquid detergent samples were prepared and used in washtests and subsequent sensory evaluation of the washed and dried fabric as described in Example 60a and c. The odour intensity was recorded on an intensity scale of 0 (odourless) to 5 (extremely strong).

[2] = as above; conditions: Table 2; dry fabric 3 days; scale 0 to 5
[3] = Application in shampoo base: sensory evaluation of washed hair swatches by expert panel; design: species or system human; conditions: Table 4
Experimental: Odour-neutral human hair swatches were wetted with warm tap water and lathered delicately with 2 mL of the above hair shampoo samples for 30 sec by hand wearing gloves. The lathered hair swatches were left in a plastic bowl for 2 min, then rinsed under running tap water for 20 sec. After removing excess water by squeezing the hair swatches between two fingers, they were left to dry in open air. The wet and dried hair swatches (1 and 3 days) were assessed by a panel of 4-6 experts with regard to odour intensity and quality. The odour intensity was recorded on an intensity scale of 0 (odourless) to 5 (extremely strong).

[4] = Odour description on paper blotter; conditions: 1% solution in EtOH on paper blotter, 24 h
[5] = Colour stability in liquid detergent base (visual inspection); assay type: physicochemical; conditions: 0.2% by weight in unperfumed liquid detergent base, compared to unperfumed base
From the text: The above prepared samples were visually inspected in comparison to an unperfumed base sample (sample C).

[6] = Biodegradability, manometric respirometry test (OECD 301F); conditions: pass level 60% oxygen consumption of theory
From the text: The results of the biodegradability assessment by the manometric respirometry test (OECD guideline for the testing of materials No. 301F, Paris 1992) are summarized in Table 6.
A compound can be classified biodegradable, if it reaches the pass level of 60% oxygen consumption of theory required for complete mineralization.
It is readily biodegradable, if the pass level is reached within 10 days within the 28-day period of the test. The 10-day window begins when the degree of biodegradation has reached 10%. If the pass level is obtained after 28-day period of the test, the compound can be classified as inherently biodegradable.

[7] = Table 2, dry fabric 1 day, scale 0 to 5
[8] = Table 2, liquid detergent washtest
[9] = Table 2, liquid detergent washtest, wet fabric, scale 0 (odorless) to 5 (extremely strong)
[10] = Table 3, dry fabric 1 day, scale 0 to 5
[11] = Table 3, dry fabric 4 days, scale 0 to 5
[12] = Table 3, heavy duty liquid detergent washtest, wet fabric, scale 0 to 5

SMILES	odour intensity, 1 day [1, 7]	odour on dry fabric [1, 8]	odour intensity, wet [1, 9]	odour released on dry fabric [1]	odour intensity, 3 days [2]	Odour description [4]	Biodegradation in % [6]	also measured
CC/C=C\C/C=C\COc1ccc(C=O)cc1OCC [3-ethoxy-4-(((2Z,5Z)-octa-2,5-dien-1-yl)oxy)benzaldehyde, reference compound]	2.8	metallic	0.9	weak and unpleasant odours	2.3	–	–	–
CC/C=C\CC(CCCCCCCCC)Oc1ccc(C=O)cc1OCC (stereo not drawn) [Example 28, (Z)-3-ethoxy-4-(Pentadec-3-en-6-yloxy)benzaldehyde]	–	–	–	–	–	powdery, creamy, vanilla, aldehydic, mandarin	–	odour on dry hair ([3]; 0.2% by weight in shampoo base): mandarin, vanilla; odour intensity, wet ([3]; 0.2% by weight in shampoo base, wet hair swatch, scale 0 (odourless) to 5 (extremely strong)): 1.7; odour intensity, 1 day ([3]; dried hair swatch 1 day, scale 0 to 5): 3.5; odour intensity, 3 days ([3]; dried hair swatch 3 days, scale 0 to 5): 4.4; odour intensity, 1 day ([1]; Table 1, line-dried fabric 1 day, scale 0 to 5): 2.3; odour intensity, 4 days ([1]; Table 1, line-dried fabric 4 days, scale 0 to 5): 2.6; odour intensity, wet ([1]; Table 1, liquid detergent 0.2% by weight, 40° C. machine wash, cotton/elastan fabric, wet, scale 0 (odourless) to 5 (extremely strong)): 2.1; odour intensity, 1 day [1, 10]: 2.3; odour intensity, 4 days [1, 11]: 2.6; odour intensity, wet [1, 12]: 2.1; odour released from washed fabric ([1]; liquid detergent washtest, dry fabric): mandarin, vanilla and powdery fragrance; Colour of liquid detergent sample (visual inspection) [5]: optically identical to the unperfumed base
CC/C=C\CC(CCCCC)Oc1ccc(C=O)cc1OCC (stereo not drawn) [Example 17, (Z)-3-ethoxy-4-(undec-3-en-6-yloxy)benzaldehyde]	–	–	–	–	–	powdery (dry, vanilla, chocolate)	86%	–
CC/C=C\C/C=C\CCOc1ccc(C=O)cc1OCC [Example 30, 3-ethoxy-4-(((3Z,6Z)-nona-3,6-dien-1-yl)oxy)benzaldehyde]	3.4	vanilla, green	2.7	strong and pleasant odour	4.1	green, leaf aldehyde, green apple, powdery, vanilla	–	odour intensity, 1 day [1, 10]: 3.4; odour intensity, 4 days [1, 11]: 4.1; odour intensity, wet [1, 12]: 2.7
CCCCCC[C@@H](C/C=C\CCCCCCCC(=O)OC)Oc1ccc(CCC(C)=O)cc1 [Example 2, methyl (S,Z)-12-(4-(3-oxobutyl)phenoxy)octadec-9-enoate]	–	–	–	–	–	powdery fruity raspberry, green, fatty	88%	–
CC/C=C\CCC(CCCCCCCCC)Oc1ccc(C=O)cc1OCC (stereo not drawn) [(Z)-3-ethoxy-4-(hexadec-3-en-7-yloxy)benzaldehyde, reference compound]	1.2	rubbery, metallic	1.1	weak and unpleasant odours	1.6	–	–	–
CCCCCC[C@@H](C/C=C\CCCCCCCC(=O)OC)Oc1ccc(C=O)cc1OCC [Example 1, methyl (S,Z)-12-(2-ethoxy-4-formylphenoxy)octadec-9-enoate]	–	–	–	–	–	powdery, vanillin, green, fatty	90%	–
CCOc1cc(C=O)ccc1O [ethylvanillin, 3-ethoxy-4-hydroxybenzaldehyde]	–	–	–	–	–	–	–	Colour of liquid detergent sample (visual inspection) [5]: strong purple coloration; also recorded: colors the base
